In patent US10865216B2, “Tricyclic Gyrase inhibitors” (MERCK SHARP & DOHME CORP., priority 2012, dated 2020):
In brackets after ≈: the same amount, converted by molar mass.

Assays:
E. coli ATCC 25922 = assay: MIC, E. coli ATCC 25922; format: cell-based; settings: E. coli; Alamar Blue read after overnight incubation at 35° C.
S. aureus ATCC 13709 = assay: MIC, S. aureus ATCC 13709; format: cell-based; settings: S. aureus; Alamar Blue read after overnight incubation at 35° C.

Row | Compound | MIC Ec (E. coli ATCC 25922) [mg/L] | MIC Sa (S. aureus ATCC 13709) [mg/L]
1 | CNc1cc(F)cc2c1[nH]c1nc(Oc3cncc(-c4nnnn4C)c3)nc(N3CCC(N)C3)c12 (centres unmarked) [Compound 4.169] | 8 (≈ 16.8 µM) | 2 (≈ 4.21 µM)
2 | CNc1cc(F)cc2c1[nH]c1nc(Oc3cncc(-c4nnnn4C)c3)nc(N3CC4C[C@@H](N)C4C3)c12 (some centres unmarked) [Compound 4.171] | 4 (≈ 7.98 µM) | ≤0.5
3 | CNc1cc(F)cc2c1[nH]c1nc(Oc3cnc(N)nc3)nc(N3CC4C(N)C4C3)c12 (centres unmarked) [Compound 4.172] | ≤0.5 | ≤0.5
4 | CNc1cc(F)cc2c1[nH]c1nc(Oc3cnc(N)nc3)nc(N3CCC4(CC4N)C3)c12 (centres unmarked) [Compound 4.173] | 1 (≈ 2.3 µM) | ≤0.5
5 | CNc1cc(F)cc2c1[nH]c1nc(Oc3cnc(N)nc3)nc(N3CCC4(C[C@H]4N)C3)c12 (some centres unmarked) [Compound 4.174] | ≤0.5 | ≤0.5
6 | CNc1cc(F)cc2c1[nH]c1nc(Oc3cnc(N)nc3)nc(N3CCC(CN)C3)c12 (centres unmarked) [Compound 4.176] | 1 (≈ 2.36 µM) | ≤0.5
7 | CNc1cc(F)cc2c1[nH]c1nc(Oc3cnc(N)nc3)nc(N3CC(N)C4(CC4)C3)c12 (centres unmarked) [Compound 4.177] | ≤0.5 | ≤0.5
8 | CNc1cc(F)cc2c1[nH]c1nc(Oc3cnc(N)nc3)nc(N3CC4CNC4C3)c12 (centres unmarked) [Compound 4.178] | 8 (≈ 19 µM) | ≤0.5
9 | CNc1cc(F)cc2c1[nH]c1nc(Oc3cnc(N)nc3)nc(N3CCC(N)C3)c12 (centres unmarked) [Compound 4.179] | 1 (≈ 2.44 µM) | ≤0.5
10 | CNc1cc(F)cc2c1[nH]c1nc(Oc3cnc(N)nc3)nc(N3CCCC(N)C3)c12 (centres unmarked) [Compound 4.180] | 8 (≈ 18.9 µM) | 1 (≈ 2.36 µM)
11 | CNc1cc(F)cc2c1[nH]c1nc(Oc3cnc(N)nc3)nc(N3CC(NC(=O)CN)C4(CC4)C3)c12 (centres unmarked) [Compound 4.182] | 16 (≈ 32.5 µM) | 2 (≈ 4.06 µM)
12 | CNc1cc(F)cc2c1[nH]c1nc(Oc3cnc(N)nc3)nc(N3C4CCC3CC(N)C4)c12 (centres unmarked) [Compound 4.183] | 8 (≈ 17.8 µM) | 1 (≈ 2.22 µM)
13 | CNc1cc(F)cc2c1[nH]c1nc(Oc3cnc(N)nc3)nc(N3CC4CC(N)C4C3)c12 (centres unmarked) [Compound 4.184] | 1 (≈ 2.3 µM) | ≤0.5
14 | CNc1cc(F)cc2c1[nH]c1nc(Oc3cnc(N)nc3)nc(N3CC4CC4(CN)C3)c12 (centres unmarked) [Compound 4.185] | 8 (≈ 18.4 µM) | ≤0.5
15 | CNc1cc(F)cc2c1[nH]c1nc(Oc3cnc(N)nc3)nc(N3CC4CCNC4C3)c12 (centres unmarked) [Compound 4.187] | 2 (≈ 4.59 µM) | ≤0.5
16 | CNc1cc(F)cc2c1[nH]c1nc(Oc3cnc(N)nc3)nc(N3CC4C(CN)C4C3)c12 (centres unmarked) [Compound 4.188] | 8 (≈ 18.4 µM) | ≤0.5
17 | CNc1cc(F)cc2c1[nH]c1nc(Oc3cnc(N)nc3)nc(N3CC4CCC(N)C4C3)c12 (centres unmarked) [Compound 4.189] | 2 (≈ 4.45 µM) | ≤0.5
18 | CNc1cc(F)cc2c1[nH]c1nc(Oc3cnc(N)nc3)nc(N3CC4CC(N)C4C3)c12 (centres unmarked) [Compound 4.190] | 1 (≈ 2.3 µM) | ≤0.5
19 | CNc1cc(F)cc2c1[nH]c1nc(Oc3cnc(SC)nc3)nc(N3CC4C(N)C4C3)c12 (centres unmarked) [Compound 4.193] | ≤0.5 | ≤0.5
20 | CNc1cc(F)cc2c1[nH]c1nc(Oc3cnc(SC)nc3)nc(N3CCC4(CC4N)C3)c12 (centres unmarked) [Compound 4.195] | 1 (≈ 2.14 µM) | ≤0.5
21 | CNc1cc(F)cc2c1[nH]c1nc(Oc3cnc(SC)nc3)nc(N3CC4CC(N)C4C3)c12 (centres unmarked) [Compound 4.196] | ≤0.5 | ≤0.5
22 | CNc1cc(F)cc2c1[nH]c1nc(Oc3cnc(SC)nc3)nc(N3CC4C(CN)C4C3)c12 (centres unmarked) [Compound 4.197] | ≤0.5 | ≤0.5
23 | CNc1cc(F)cc2c1[nH]c1nc(Oc3cnc(SC)nc3)nc(N3CC4CCNC4C3)c12 (centres unmarked) [Compound 4.198] | ≤0.5 | ≤0.5
24 | CNc1cc(F)cc2c1[nH]c1nc(Oc3cnc(SC)nc3)nc(N3CCC(N)C3)c12 (centres unmarked) [Compound 4.199] | ≤0.5 | ≤0.5
25 | CNc1cc(F)cc2c1[nH]c1nc(Oc3cnc(SC)nc3)nc(N3CC4CCC(N)C4C3)c12 (centres unmarked) [Compound 4.200] | ≤0.5 | ≤0.5
26 | CNc1cc(F)cc2c1[nH]c1nc(Oc3cnc(SC)nc3)nc(N3CC4CC(N)C4C3)c12 (centres unmarked) [Compound 4.201] | ≤0.5 | ≤0.5
27 | CNc1cc(F)cc2c1[nH]c1nc(Oc3cnc(SC)nc3)nc(N3CC4(CC[C@H]4N)C3)c12 [Compound 4.202] | ≤0.5 | ≤0.5
28 | CNc1cc(F)cc2c1[nH]c1nc(Oc3cnc(SC)nc3)nc(N3CCC4(C[C@H]4N)C3)c12 (some centres unmarked) [Compound 4.203] | ≤0.5 | ≤0.5

Row | Compound | MIC Ec (E. coli ATCC 25922) [mg/L] | MIC Sa (S. aureus ATCC 13709) [mg/L]
29 | CNc1cc(F)cc2c1[nH]c1nc(Oc3cncc(-c4cncnc4)c3)nc(N3CC4C(N)C4C3)c12 (centres unmarked) [Compound 4.205] | ≤0.5 | ≤0.5
30 | CNc1cc(F)cc2c1[nH]c1nc(Oc3cncc(-c4cn[nH]c4)c3)nc(N3CC4C(N)C4C3)c12 (centres unmarked) [Compound 4.206] | 4 (≈ 8.48 µM) | ≤0.5
31 | CNc1cc(F)cc2c1[nH]c1nc(Oc3cnc(N(C)C)nc3)nc(N3CC[C@@H](N)C3)c12 [Compound 4.207] | ≤0.5 | ≤0.5
32 | CNc1cc(F)cc2c1[nH]c1nc(Oc3cnc(N(C)C)nc3)nc(N3CC4C(N)C4C3)c12 (centres unmarked) [Compound 4.208] | ≤0.5 | ≤0.5
33 | CNc1cc(F)cc2c1[nH]c1nc(Oc3cnc(N(C)C)nc3)nc(N3CC(N)C4(CC4)C3)c12 (centres unmarked) [Compound 4.209] | ≤0.5 | ≤0.5
34 | CNc1cc(F)cc2c1[nH]c1nc(Oc3cncc(-c4nnn(C)n4)c3)nc(N3CC4C(N)C4C3)c12 (centres unmarked) [Compound 4.210] | 1 (≈ 2.05 µM) | ≤0.5
35 | CNc1cc(F)cc2c1[nH]c1nc(Oc3cnc(N4CCOCC4)nc3)nc(N3CC4C(N)C4C3)c12 (centres unmarked) [Compound 4.211] | >16 | 16 (≈ 32.6 µM)
36 | CNc1cc(F)cc2c1[nH]c1nc(Oc3cnc(N4CCOCC4)nc3)nc(N3CC[C@@H](N)C3)c12 [Compound 4.212] | ≤0.5 | ≤0.5
37 | CNc1cc(F)cc2c1[nH]c1nc(Oc3cnc(N4CCOCC4)nc3)nc(N3CC(N)C4(CC4)C3)c12 (centres unmarked) [Compound 4.213] | 1 (≈ 1.98 µM) | ≤0.5
38 | CNc1cc(F)cc2c1[nH]c1nc(Oc3cnc(N4CCOCC4)nc3)nc(N3CCC4(CC4N)C3)c12 (centres unmarked) [Compound 4.214] | 2 (≈ 3.96 µM) | ≤0.5
39 | CNc1cc(F)cc2c1[nH]c1nc(Oc3cnc(N4CCOCC4)nc3)nc(N3CCC(CN)C3)c12 (centres unmarked) [Compound 4.215] | 4 (≈ 8.1 µM) | ≤0.5
40 | CNc1ncc(Oc2nc(N3C[C@H](N)C4(CC4)C3)c3c(n2)[nH]c2c(NC)cc(F)cc23)cn1 [Compound 4.216] | ≤0.5 | ≤0.5
41 | CNc1ncc(Oc2nc(N3CC4C(N)C4C3)c3c(n2)[nH]c2c(NC)cc(F)cc23)cn1 (centres unmarked) [Compound 4.218] | ≤0.5 | ≤0.5
42 | CNc1ncc(Oc2nc(N3CC[C@@H](N)C3)c3c(n2)[nH]c2c(NC)cc(F)cc23)cn1 [Compound 4.219] | ≤0.5 | ≤0.5
43 | CNc1ncc(Oc2nc(N3CCC4(CC4N)C3)c3c(n2)[nH]c2c(NC)cc(F)cc23)cn1 (centres unmarked) [Compound 4.220] | ≤0.5 | ≤0.5
44 | CNc1ncc(Oc2nc(N3CC4CC(N)C4C3)c3c(n2)[nH]c2c(NC)cc(F)cc23)cn1 (centres unmarked) [Compound 4.221] | 2 (≈ 4.45 µM) | ≤0.5
45 | CNc1cc(F)cc2c1[nH]c1nc(Oc3cnc(NC4CC4)nc3)nc(N3CC[C@@H](N)C3)c12 [Compound 4.222] | ≤0.5 | ≤0.5
46 | CNc1cc(F)cc2c1[nH]c1nc(Oc3cnc(NC4CC4)nc3)nc(N3CC4C(N)C4C3)c12 (centres unmarked) [Compound 4.223] | ≤0.5 | ≤0.5
47 | CNc1cc(F)cc2c1[nH]c1nc(Oc3cnc(-c4nn[nH]n4)nc3)nc(N3CC[C@@H](N)C3)c12 [Compound 4.224] | >16 | 1 (≈ 2.16 µM)
48 | CNc1cc(F)cc2c1[nH]c1nc(Oc3cnc4c(c3)ncn4C)nc(N3CC[C@@H](N)C3)c12 [Compound 4.225] | 2 (≈ 4.47 µM) | ≤0.5
49 | CNc1cc(F)cc2c1[nH]c1nc(Oc3cnc4c(c3)ncn4C)nc(N3CC4CC(N)C4C3)c12 (centres unmarked) [Compound 4.226] | 2 (≈ 4.22 µM) | ≤0.5
50 | CNc1cc(F)cc2c1[nH]c1nc(Oc3cnc(N4CCN(C(C)=O)CC4)nc3)nc(N3CC[C@@H](N)C3)c12 [Compound 4.229] | 2 (≈ 3.84 µM) | ≤0.5
51 | CNc1cc(F)cc2c1[nH]c1nc(Oc3ccnnc3)nc(N3CC(N)C4(CC4)C3)c12 (centres unmarked) [Compound 4.230] | >16 | 32 (≈ 76.1 µM)
52 | CNc1cc(F)cc2c1[nH]c1nc(Oc3cnc(C(C)C)nc3)nc(N3CC4C(N)C4C3)c12 (centres unmarked) [Compound 4.232] | ≤0.5 | ≤0.5
53 | CNc1cc(F)cc2c1[nH]c1nc(Oc3cnc(C(C)C)nc3)nc(N3CC4CC(N)C4C3)c12 (centres unmarked) [Compound 4.234] | 1 (≈ 2.16 µM) | ≤0.5
54 | CNc1cc(F)cc2c1[nH]c1nc(Oc3cnc(C(C)C)nc3)nc(N3CCC4(CC4N)C3)c12 (centres unmarked) [Compound 4.235] | ≤0.5 | ≤0.5
55 | CNc1cc(F)cc2c1[nH]c1nc(Oc3cncc(C(N)=O)c3)nc(N3CC4CC(N)C4C3)c12 (centres unmarked) [Compound 4.236] | ≤0.5 | ≤0.5
